Measured values published in ChEMBL document CHEMBL1201862, “PubChem BioAssay data set” (2004).
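All cell lines were grown in 96-well plates and treated with compound for 48 hours. The concentration for 50% growth inhibition is given as GI50.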 Activity calls are given as the source filed them. Cut-off read from the data, not from the text of the source: active = GI50 up to about 1.1 µM and inactive = higher.

Experiments:
Test in all cases: NCI tumour cell line growth inhibition, 48 h
DLD-1 = system: DLD-1
OVCAR-8 = system: OVCAR-8
HL-60 = system: HL-60
SK-MEL-28 = system: SK-MEL-28
SN12C = system: SN12C
COLO 205 = system: COLO 205
SF-295 = system: SF-295
HCC 2998 = system: HCC 2998
SNB-78 = system: SNB-78
OVCAR-5 = system: OVCAR-5
SF-539 = system: SF-539
M19-MEL = system: M19-MEL
EKVX = system: EKVX
XF498 = system: XF498
DMS-273 = system: DMS-273
OVCAR-4 = system: OVCAR-4
LXFL 529 = system: LXFL 529
K562 = system: K562
UACC-62 = system: UACC-62
RPMI-8226 = system: RPMI-8226
SW-620 = system: SW-620
SF-268 = system: SF-268
A498 = system: A498
SK-MEL-2 = system: SK-MEL-2
HOP-92 = system: HOP-92
OVCAR-3 = system: OVCAR-3
SNB-19 = system: SNB-19
ACHN = system: ACHN
UO-31 = system: UO-31
A549 = system: A549
NCI-H522 = system: NCI-H522
NCI-H23 = system: NCI-H23
M14 = system: M14
SK-OV-3 = system: SK-OV-3
CCRF-CEM = system: CCRF-CEM
RXF 393 = system: RXF 393
CAKI-1 = system: CAKI-1
786-0 = system: 786-0
UACC-257 = system: UACC-257
NCI-H460 = system: NCI-H460
HCT-15 = system: HCT-15
SNB-75 = system: SNB-75
LOX IMVI = system: LOX IMVI
HOP-62 = system: HOP-62
SK-MEL-5 = system: SK-MEL-5
DMS-114 = system: DMS-114
TK-10 = system: TK-10
MOLT-4 = system: MOLT-4
IGROV-1 = system: IGROV-1
KM-20L2 = system: KM-20L2
U-251 = system: U-251
Malme-3M = system: Malme-3M
KM12 = system: KM12
SR = system: SR
HCT-116 = system: HCT-116
HT-29 = system: HT-29
HOP-18 = system: HOP-18

Cc1ccc(S(=O)(=O)N/N=C(\c2nc3ccc([N+](=O)[O-])cc3[nH]c2=O)C(O)c2ccc([N+](=O)[O-])cc2)cc1 (centres undefined)
GI50 (DLD-1): 57.1 µM (inactive) | GI50 (OVCAR-8): > 100 µM (inactive) | GI50 (HL-60): 10 µM (inactive) | GI50 (SK-MEL-28): > 100 µM (inactive) | GI50 (SN12C): > 100 µM (inactive) | GI50 (COLO 205): > 100 µM (inactive) | GI50 (SF-295): > 100 µM (inactive) | GI50 (HCC 2998): 28.2 µM (inactive) | GI50 (SNB-78): > 100 µM (inactive) | GI50 (OVCAR-5): 67.1 µM (inactive) | GI50 (SF-539): > 100 µM (inactive) | GI50 (M19-MEL): > 100 µM (inactive) | GI50 (EKVX): > 100 µM (inactive) | GI50 (XF498): > 100 µM (inactive) | GI50 (DMS-273): 54 µM (inactive) | GI50 (OVCAR-4): 68.9 µM (inactive) | GI50 (LXFL 529): 46 µM (inactive) | GI50 (K562): 29.2 µM (inactive) | GI50 (UACC-62): 85.5 µM (inactive) | GI50 (RPMI-8226): 21.6 µM (inactive) | GI50 (SW-620): > 100 µM (inactive) | GI50 (SF-268): 63.5 µM (inactive) | GI50 (A498): > 100 µM (inactive) | GI50 (SK-MEL-2): > 100 µM (inactive) | GI50 (HOP-92): > 100 µM (inactive) | GI50 (OVCAR-3): > 100 µM (inactive) | GI50 (SNB-19): > 100 µM (inactive) | GI50 (ACHN): 35 µM (inactive) | GI50 (UO-31): 56.9 µM (inactive) | GI50 (A549): > 100 µM (inactive) | GI50 (NCI-H522): 10.8 µM (inactive) | GI50 (NCI-H23): > 100 µM (inactive) | GI50 (M14): > 100 µM (inactive) | GI50 (SK-OV-3): > 100 µM (inactive) | GI50 (CCRF-CEM): 22.3 µM (inactive) | GI50 (RXF 393): > 100 µM (inactive) | GI50 (CAKI-1): 97.1 µM (inactive) | GI50 (786-0): > 100 µM (inactive) | GI50 (UACC-257): > 100 µM (inactive) | GI50 (NCI-H460): 55.2 µM (inactive) | GI50 (HCT-15): 28.2 µM | GI50 (SNB-75): > 100 µM (inactive) | GI50 (LOX IMVI): 23.8 µM (inactive) | GI50 (HOP-62): 51.2 µM (inactive) | GI50 (SK-MEL-5): 73.8 µM (inactive) | GI50 (DMS-114): 32 µM (inactive) | GI50 (TK-10): > 100 µM (inactive) | GI50 (MOLT-4): 29.4 µM (inactive) | GI50 (IGROV-1): > 100 µM (inactive) | GI50 (KM-20L2): 46.2 µM (inactive) | GI50 (U-251): > 100 µM (inactive) | GI50 (Malme-3M): > 100 µM (inactive)

O=C1CC(=O)N(CCc2ccccc2)S(=O)(=O)N1CCc1ccccc1
GI50 (KM12): 16.2 µM (inactive) | GI50 (DLD-1): 43.5 µM (inactive) | GI50 (OVCAR-8): > 10 µM (inactive) | GI50 (HL-60): 19.1 µM (inactive) | GI50 (SK-MEL-28): 28.1 µM (inactive) | GI50 (SN12C): 33 µM (inactive) | GI50 (COLO 205): 22.4 µM (inactive) | GI50 (SF-295): 16.9 µM (inactive) | GI50 (HCC 2998): 86.9 µM (inactive) | GI50 (OVCAR-5): 22.7 µM (inactive) | GI50 (SR): 22.7 µM (inactive) | GI50 (SF-539): 22.6 µM (inactive) | GI50 (M19-MEL): 32.4 µM (inactive) | GI50 (DMS-273): 22.5 µM (inactive) | GI50 (HCT-116): 28.7 µM (inactive) | GI50 (OVCAR-4): 19.8 µM (inactive) | GI50 (LXFL 529): 19.8 µM (inactive) | GI50 (K562): 23.7 µM (inactive) | GI50 (UACC-62): 25.9 µM (inactive) | GI50 (RPMI-8226): 24.4 µM (inactive) | GI50 (SW-620): 31.8 µM (inactive) | GI50 (SF-268): 29.1 µM (inactive) | GI50 (A498): 16.6 µM (inactive) | GI50 (SK-MEL-2): 22.6 µM (inactive) | GI50 (HOP-92): 16.6 µM (inactive) | GI50 (OVCAR-3): 16.9 µM (inactive) | GI50 (SNB-19): 29.2 µM (inactive) | GI50 (ACHN): 35.9 µM (inactive) | GI50 (UO-31): 21.8 µM (inactive) | GI50 (A549): 24.4 µM (inactive) | GI50 (NCI-H522): 19.5 µM (inactive) | GI50 (NCI-H23): 25 µM (inactive) | GI50 (M14): 40.6 µM (inactive) | GI50 (SK-OV-3): 24.3 µM (inactive) | GI50 (HT-29): 23 µM (inactive) | GI50 (CCRF-CEM): 17.2 µM (inactive) | GI50 (RXF 393): 34.1 µM (inactive) | GI50 (CAKI-1): 22.2 µM (inactive) | GI50 (786-0): 17.1 µM (inactive) | GI50 (NCI-H460): 27.7 µM (inactive) | GI50 (HCT-15): 33.2 µM | GI50 (HOP-18): 65.2 µM (inactive) | GI50 (SNB-75): 23.1 µM (inactive) | GI50 (LOX IMVI): 1.91 µM (inactive) | GI50 (HOP-62): 36.2 µM (inactive) | GI50 (SK-MEL-5): 18.7 µM (inactive) | GI50 (DMS-114): 21.4 µM (inactive) | GI50 (TK-10): 36.6 µM (inactive) | GI50 (MOLT-4): 20.3 µM (inactive) | GI50 (IGROV-1): 20.1 µM (inactive) | GI50 (U-251): 16.9 µM (inactive) | GI50 (Malme-3M): 26 µM (inactive)
